How the values were obtained:
SLC1A4 = biological target: T1, SLC1A4 (Homo sapiens, UniProt P43007); assay: TEVC block of anion leak conductance in oocytes; format: cell-based; details: SLC1A4; compared with ligands of refs 43, 65
T1 construct: expressed in transfected cells; host or cells: Xenopus laevis oocytes (cRNA injection)
T1 sequence (P43007 1-532): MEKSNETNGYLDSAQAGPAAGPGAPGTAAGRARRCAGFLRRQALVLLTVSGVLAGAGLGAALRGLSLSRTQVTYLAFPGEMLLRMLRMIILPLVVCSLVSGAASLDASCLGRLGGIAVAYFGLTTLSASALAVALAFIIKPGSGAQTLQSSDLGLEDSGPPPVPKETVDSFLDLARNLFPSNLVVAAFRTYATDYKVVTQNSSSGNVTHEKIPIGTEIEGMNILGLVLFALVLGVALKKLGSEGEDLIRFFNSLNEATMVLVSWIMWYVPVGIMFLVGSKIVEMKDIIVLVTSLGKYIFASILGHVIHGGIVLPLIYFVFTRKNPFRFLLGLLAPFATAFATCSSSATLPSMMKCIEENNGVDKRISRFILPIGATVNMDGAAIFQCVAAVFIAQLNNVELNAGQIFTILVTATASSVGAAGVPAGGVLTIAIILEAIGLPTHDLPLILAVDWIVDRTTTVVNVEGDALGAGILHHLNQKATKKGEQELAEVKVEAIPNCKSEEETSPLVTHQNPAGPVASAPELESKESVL
Text: (§1) The currents induced by substrates and blocked by hydroxyproline analogs shared a reversal potential shown in the current/voltage relationship consistent with the conductance originating from the same ion pore (Figure 3, inset). […] The observed dose–response relationships are independent of competing substrates, and thus provide a direct measure of the equilibrium inhibition constant (Ki). Each synthetic hydroxyproline analog was functionally assessed for its capacity to inhibit SLC1A4 and SLC1A5 leak currents with affinities reported in Table 1 as determined or approximated Ki.
(§2) Two-electrode voltage clamp (TEVC) transporter currents were recorded with a GeneClamp 500 amplifier and Digidata 1320A analog–digital interface (Molecular Devices, San Jose, CA, USA). Electrodes (0.2–1.0 MΩ) were filled with 3M KCl and the recording chamber was grounded with an agar bridge. Data were acquired with Axograph (v1.7.6) and LabChart (v7) and analyzed with Kaleidagraph software (v4.1) (Synergy, Reading, PA, USA). Uncoupled anion currents associated with the transport of substrate and block of SLC1A4 or SLC1A5 mediated leak conductance were recorded in the presence of Ringer with 50% substitution of NaCl by NaSCN to amplify the non-transported anion conductance.
(§3) Figure 3 AHPCs block a leak current in SLC1A4 and SLC1A5. […] Inset (A): The current and voltage relationship for SLC1A4 currents activated by Ala or blocked by 14b are determined by subtracting voltage jumps in buffer.

mSLC1A5 = biological target: T2, mSLC1A5 (Mus musculus, UniProt P51912); assay: TEVC block of anion leak conductance in oocytes; format: cell-based; details: SLC1A5; compared with ligands of refs 43, 65
T2 construct: expressed in transfected cells; host or cells: Xenopus laevis oocytes (cRNA injection)
T2 sequence (P51912 1-553): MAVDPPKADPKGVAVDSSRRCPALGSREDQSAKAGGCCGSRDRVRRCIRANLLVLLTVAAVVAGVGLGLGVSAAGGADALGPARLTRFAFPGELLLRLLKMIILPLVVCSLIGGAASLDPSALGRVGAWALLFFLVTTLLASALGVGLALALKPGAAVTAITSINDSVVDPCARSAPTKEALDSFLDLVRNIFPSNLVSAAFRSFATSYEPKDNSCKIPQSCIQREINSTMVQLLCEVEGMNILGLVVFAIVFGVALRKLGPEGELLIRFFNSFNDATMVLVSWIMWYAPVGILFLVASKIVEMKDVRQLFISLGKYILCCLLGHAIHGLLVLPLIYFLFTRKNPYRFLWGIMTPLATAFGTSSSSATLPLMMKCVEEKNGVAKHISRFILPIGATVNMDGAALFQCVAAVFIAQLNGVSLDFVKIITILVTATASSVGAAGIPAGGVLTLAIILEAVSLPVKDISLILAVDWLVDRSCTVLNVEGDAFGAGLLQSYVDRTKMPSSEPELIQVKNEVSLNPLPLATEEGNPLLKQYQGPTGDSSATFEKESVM
Text: as §1, §2, §3

With `O=C(O)[C@H]1NC[C@@H](OCc2ccc(-c3ccccc3)cc2)[C@@H]1O` [14e] the “fold improvement in affinity over ligands previously reported” value (SLC1A4) was 7–25 fold and the “fold improvement in affinity over ligands previously reported” value (mSLC1A5) was 7–25 fold.

From paper PMC11123841, “Discovery and Synthesis of Hydroxy-L-Proline Blockers of the Neutral Amino Acid Transporters SLC1A4 (ASCT1) and SLC1A5 (ASCT2)” (Molecules, 2024)
